Laboratory results published in US7087626B2, “Pyrrole derivatives as pharmaceutical agents” (Eli Lilly and Company, priority 2001, dated 2006).

Columns and labels:
Type in all cases: biochemical
[1] = target: T1, KDR (VEGFR2) (Homo sapiens, UniProt P35968); test: KDR (VEGFR2) in vitro kinase assay; details: 1 ug enzyme, 1 uM ATP, 30° C., 20 min
T1 construct: The 6×-HIS tagged cytoplasmic kinase domain of KDR was expressed and purified from Sf9 insect cell lysates; 6xHis; made in house; host or cells: Sf9 insect cells
Procedure: KDR (VEGFR2) Purification and in vitro Kinase Assay
The 6×-HIS tagged cytoplasmic kinase domain of KDR was expressed and purified from Sf9 insect cell lysates as described above with the following modification:
1× kinase buffer for chromatography washes and elution was changed to 100 mM HEPES pH 7.5, 10 mM MnCl2 and 5 mM β-mercaptoethanol. The resulting material was approximately 40% pure and had tyrosine autophosphorylation activity.
Reactions: 1 ug enzyme in 1×KB, compound dilution series in 1×KB/16% DMSO (20 uM to 1 nM final concentration with 4% DMSO final concentration), reactions were started by adding ATP mix (1 uM ATP/1 uCi ^33P-[…]-ATP final concentrations) in 1×KB.
Reactions were incubated at 30° C. for 20 min. The reactions were stopped and quantitated using standard TCA/BSA precipitation onto Millipore FC glass fiber filter plates and by liquid scintillation counting on a MicroBeta JET.

[2] = target: T2, p38α/SAPK2α (Homo sapiens, UniProt Q16539); test: p38α in vitro kinase assay; details: 5 nM p38α, 62.5 uM EGFR substrate, 100 uM ATP, 30° C., 40 min
T2 construct: purchased Upstate Biotechnology 14-251
Procedure: p38α in vitro Kinase Assay
Active p38α/SAPK2α was purchased from Upstate Biotechnology (cat#14-251). A known p38α substrate from EGFR was used in the assay (Young, et al. (1997) JBC 272: 12116-12121).
Reactions were performed in 1× kinase buffer (25 mM Tris-HCl pH 7.5, 5 mM β-glycerophosphate, 2 mM DTT, 0.1 mM Na3VO4, 10 mM MgCl2, 1 uM Microcystin) with 5 nM p38α, 62.5 uM substrate, 40 uM to 0.2 nM compound dilution series in 1×KB/16% DMSO (final 4% DMSO concentration). Reactions were started by addition of 100 uM ATP (final concentration) with 1 uCi ^33P-γ-ATP in 1×KB and incubated at 30° C. for 40 min. Reactions were stopped with H3PO4 and quantitated on Millipore PH phosphocellulose filter plates by liquid scintillation counting on a MicroBeta JET.

[3] = target: T3, TGF-β Type I (RIT204D) receptor (Homo sapiens, UniProt P36897, T204D); test: TGF-β Receptor I (RIT204D) in vitro kinase reaction; details: 6×-HIS cytoplasmic kinase domain, 4 uM ATP, 30° C., 1 hr
T3 construct: The 6×-HIS tagged cytoplasmic kinase domain of each receptor was expressed and purified from Sf9 insect cell lysates; 6xHis; made in house; host or cells: Sf9 insect cells
T3 sequence (P36897 148-503 T204D limits assumed): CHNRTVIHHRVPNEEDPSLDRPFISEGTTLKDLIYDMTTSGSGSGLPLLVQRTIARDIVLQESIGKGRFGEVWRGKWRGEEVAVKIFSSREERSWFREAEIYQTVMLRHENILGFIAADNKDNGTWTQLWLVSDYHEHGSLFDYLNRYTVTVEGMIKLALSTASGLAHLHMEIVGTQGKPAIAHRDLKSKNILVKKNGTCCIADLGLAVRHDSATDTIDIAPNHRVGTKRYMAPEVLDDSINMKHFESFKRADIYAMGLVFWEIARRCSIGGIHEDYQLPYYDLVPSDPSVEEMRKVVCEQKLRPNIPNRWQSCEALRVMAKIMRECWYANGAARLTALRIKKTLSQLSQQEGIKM
Procedure: TGF-β Receptor I and II Purification and in vitro Kinase Reactions
For TGF-β Type I (RIT204D) and Type II (RII WT) Receptors: The 6×-HIS tagged cytoplasmic kinase domain of each receptor was expressed and purified from Sf9 insect cell lysates as briefly described below:
Cell pellets after 48-72 hrs of infection were lysed in lysis buffer (LB: 50 mM Tris pH 7.5, 150 mM NaCl, 50 mM NaF, 0.5% NP40 with freshly added 20 mM, β-mercaptoethanol, 10 mM imidazole, 1 mM PMSF, 1×EDTA-free Complete Protease Inhibitor (Boehringer Mannheim).
Reactions: 170-200 nM enzyme in 1×KB, compound dilution series in 1×KB/16% DMSO (20 uM to 1 nM final concentration with 4% DMSO final concentration), reactions started by adding ATP mix (4 uM ATP/1 uCi ^33P-[…]-ATP final concentrations) in 1×KB.
Reactions were incubated at 30° C. for 1 hr RIT204D or 40 min for RII WT. Reactions were stopped and quantitated using standard TCA/BSA precipitation onto Millipore FB glass fiber filter plates and by liquid scintillation counting on a MicroBeta JET.

T1 sequence (P35968 834-1162 limits assumed, species assumed): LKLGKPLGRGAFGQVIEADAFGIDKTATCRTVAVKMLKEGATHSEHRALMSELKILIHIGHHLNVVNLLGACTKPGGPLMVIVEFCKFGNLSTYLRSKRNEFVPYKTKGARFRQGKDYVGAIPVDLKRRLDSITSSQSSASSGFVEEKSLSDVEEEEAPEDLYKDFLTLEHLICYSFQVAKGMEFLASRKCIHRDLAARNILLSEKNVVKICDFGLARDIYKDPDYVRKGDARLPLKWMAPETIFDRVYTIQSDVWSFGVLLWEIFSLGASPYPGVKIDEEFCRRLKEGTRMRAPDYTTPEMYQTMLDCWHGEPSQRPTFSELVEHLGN
T2 sequence (Q16539 whole entry): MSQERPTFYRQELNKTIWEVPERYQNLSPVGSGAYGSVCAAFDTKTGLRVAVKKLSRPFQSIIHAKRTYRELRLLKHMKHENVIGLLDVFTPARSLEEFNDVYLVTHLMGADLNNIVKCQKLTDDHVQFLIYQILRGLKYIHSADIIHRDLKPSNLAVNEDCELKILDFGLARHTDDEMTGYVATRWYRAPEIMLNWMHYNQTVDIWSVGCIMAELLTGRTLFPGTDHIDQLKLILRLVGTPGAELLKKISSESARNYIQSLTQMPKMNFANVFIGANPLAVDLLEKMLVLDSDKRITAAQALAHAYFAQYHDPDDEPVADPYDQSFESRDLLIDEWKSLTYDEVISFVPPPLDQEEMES

Row | SMILES | IC50 [1] [µM] | IC50 [2] [µM] | IC50 [3] [µM]
1 | COC(=O)c1ccc2c(-c3c(-c4ccccn4)nn4c3CCC4)ccnc2c1 [4-[2-Pyridin-2-yl-5,6-dihydro-4H-pyrrolo[1,2-b]pyrazol-3-yl]-quinoline-7-carboxylic acid methyl ester] | < 20 | < 20 | –
2 | CN(C)C(=O)c1cccc(Oc2ccc3c(-c4c(-c5ccccn5)nn5c4CCC5)ccnc3c2)c1 [N,N-Dimethyl-3-[4-(2-pyridin-2-yl-5,6-dihydro-4H-pyrrolo[1,2-b]pyrazol-3-yl)-quinolin-7-yloxy]-benzamide] | < 20 | – | < 20
